Molecular target: T1, Recombinant (1-346) HPK1 (h) (Homo sapiens, UniProt Q92918)
T1 construct: Recombinant (1-346) HPK1 (h) is incubated with 8 mM MOPS pH 7.0
T1 sequence (Q92918 1-346): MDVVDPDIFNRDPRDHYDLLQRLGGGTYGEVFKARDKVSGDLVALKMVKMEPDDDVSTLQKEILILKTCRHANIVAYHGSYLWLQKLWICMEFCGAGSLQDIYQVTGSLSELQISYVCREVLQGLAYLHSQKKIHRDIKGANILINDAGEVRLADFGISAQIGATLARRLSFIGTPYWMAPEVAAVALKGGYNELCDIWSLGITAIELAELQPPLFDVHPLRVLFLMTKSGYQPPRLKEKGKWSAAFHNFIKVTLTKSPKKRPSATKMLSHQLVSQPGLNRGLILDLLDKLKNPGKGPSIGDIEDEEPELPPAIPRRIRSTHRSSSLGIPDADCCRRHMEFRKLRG
Experiment: HPK1 Human STE Kinase Enzymatic Radiometric Assay
Format: biochemical
Conditions: read-out: HPK1 IC50 nM Range*
Procedure: A stock solution of 10 mM of test compound is prepared in DMSO. The compound plate was prepared by 3-fold and 9-point serial dilutions. […] The reaction is initiated by The addition of the Mg/ATP mix. After incubation for 40 minutes at RT, the reaction is stopped by the addition of phosphoric acid to a concentration of 0.5%.

Row | SMILES | IC50 [nM]
1 | COC1CCN(Cc2cc(-c3cc(-c4cc5c(cc4F)C(=O)NCC5)c(N)nc3F)ccc2OCCCC(F)F)CC1 [I-527, 6-(2-amino-5-(4-(4,4-difluorobutoxy)-3-((4-methoxypiperidin-1-yl)methyl)phenyl)-6-fluoropyridin-3-yl)-7-fluoro-3,4-dihydroisoquinolin-1(2H)-one] | 11 to 100
2 | Nc1nc(F)c(-c2ccc(C3=CCOCC3)cc2CO)cc1-c1cc2c(cc1F)C(=O)NCC2 [I-528, 6-(2-amino-5-(4-(3,6-dihydro-2H-pyran-4-yl)-2-(hydroxymethyl)phenyl)-6-fluoropyridin-3-yl)-7-fluoro-3,4-dihydroisoquinolin-1(2H)-one] | 101 to 1000
3 | Cc1[nH]c(=O)c2c(F)cc(-c3cc(-c4ccc(N5CCN(CC6CC6)CC5)cc4)c(F)nc3N)cc2c1F [I-529, 6-(2-amino-5-(4-(4-(cyclopropylmethyl)piperazin-1-yl)phenyl)-6-fluoropyridin-3-yl)-4,8-difluoro-3-methylisoquinolin-1(2H)-one] | 0.1 to 10
4 | CN(C)Cc1cc(-c2cc(-c3ccc4c(c3)CCNC4=O)c(N)nc2F)ccc1OC1CCOCC1 [I-530, 6-(2-amino-5-(3-((dimethylamino)methyl)-4-((tetrahydro-2H-pyran-4-yl)oxy)phenyl)-6-fluoropyridin-3-yl)-3,4-dihydroisoquinolin-1(2H)-one] | 11 to 100
5 | CN(C)Cc1cc(-c2cc(-c3cc4c(cc3F)C(=O)NCC4)c(N)nc2F)ccc1OC1CCOCC1 [I-531, 6-(2-amino-5-(3-((dimethylamino)methyl)-4-((tetrahydro-2H-pyran-4-yl)oxy)phenyl)-6-fluoropyridin-3-yl)-7-fluoro-3,4-dihydroisoquinolin-1(2H)-one] | 11 to 100
6 | CN(C)Cc1cc(-c2cc(-c3ccc4c(c3)CCNC4=O)c(N)nc2F)ccc1OCC1CCOCC1 [I-532, 6-(2-amino-5-(3-((dimethylamino)methyl)-4-((tetrahydro-2H-pyran-4-yl)methoxy)phenyl)-6-fluoropyridin-3-yl)-3,4-dihydroisoquinolin-1(2H)-one] | 11 to 100
7 | CN(C)Cc1cc(-c2cc(-c3cc4c(cc3F)C(=O)NCC4)c(N)nc2F)ccc1OCC1CCOCC1 [I-533, 6-(2-amino-5-(3-((dimethylamino)methyl)-4-((tetrahydro-2H-pyran-4-yl)methoxy)phenyl)-6-fluoropyridin-3-yl)-7-fluoro-3,4-dihydroisoquinolin-1(2H)-one] | 0.1 to 10
8 | Cc1[nH]c(=O)c2c(F)cc(-c3cc(-c4ccc(N5CCOCC5)c(CN(C)C)c4)c(F)nc3N)cc2c1F [I-534, 6-(2-amino-5-(3-((dimethylamino)methyl)-4-morpholinophenyl)-6-fluoropyridin-3-yl)-4,8-difluoro-3-methylisoquinolin-1(2H)-one] | 11 to 100
9 | Cc1[nH]c(=O)c2c(F)cc(-c3cc(-c4ccc(C5CCOCC5)c(CN(C)C)c4)c(F)nc3N)cc2c1F [I-535, 6-(2-amino-5-(3-((dimethylamino)methyl)-4-(tetrahydro-2H-pyran-4-yl)phenyl)-6-fluoropyridin-3-yl)-4,8-difluoro-3-methylisoquinolin-1(2H)-one] | 11 to 100
10 | COc1ccc(-c2cc(-c3ccc4c(c3)CCNC4=O)c(N)nc2F)cc1CO [I-536, 6-(2-amino-6-fluoro-5-(3-(hydroxymethyl)-4-methoxyphenyl)pyridin-3-yl)-3,4-dihydroisoquinolin-1(2H)-one] | 11 to 100
11 | COc1c[nH]c(=O)c2ccc(-c3cc(-c4ccc(N5CCN(C(C)C)CC5)cc4)c(F)nc3N)cc12 [I-537] | 0.1 to 10
12 | Cc1[nH]c(=O)c2ccc(-c3cc(-c4ccc(N5CCN(C(C)C)CC5)cc4)c(F)nc3N)cc2c1Cl [I-538, 6-(2-amino-6-fluoro-5-(4-(4-isopropylpiperazin-1-yl)phenyl)pyridin-3-yl)-4-chloro-3-methylisoquinolin-1(2H)-one] | 0.1 to 10
13 | CN1CCOC2(C1)CN(c1ccc(-c3cc(-c4cc5c(cc4F)C(=O)NCC5)c(N)nc3F)cc1)C2 [I-539, 6-(2-amino-6-fluoro-5-(4-(8-methyl-5-oxa-2,8-diazaspiro[3.5]nonan-2-yl)phenyl)pyridin-3-yl)-7-fluoro-3,4-dihydroisoquinolin-1(2H)-one] | 0.1 to 10
14 | COC1CCN(Cc2cc(-c3cc(-c4ccc5c(c4)CCNC5=O)c(N)nc3F)ccc2C2CCOCC2)CC1 [I-540, 6-(2-amino-6-fluoro-5-(3-((4-methoxypiperidin-1-yl)methyl)-4-(tetrahydro-2H-pyran-4-yl)phenyl)pyridin-3-yl)-3,4-dihydroisoquinolin-1(2H)-one] | 11 to 100
15 | COC1CCN(Cc2cc(-c3cc(-c4cc5c(cc4F)C(=O)NCC5)c(N)nc3F)ccc2C2CCOCC2)CC1 [I-541, 6-(2-amino-6-fluoro-5-(3-((4-methoxypiperidin-1-yl)methyl)-4-(tetrahydro-2H-pyran-4-yl)phenyl)pyridin-3-yl)-7-fluoro-3,4-dihydroisoquinolin-1(2H)-one] | 11 to 100
16 | COC1CCN(Cc2cc(-c3cc(-c4ccc5c(c4)CCNC5=O)c(N)nc3F)ccc2N2CCOCC2)C1 (centres unmarked) [I-542, 6-(2-amino-6-fluoro-5-(3-((3-methoxypyrrolidin-1-yl)methyl)-4-morpholinophenyl)pyridin-3-yl)-3,4-dihydroisoquinolin-1(2H)-one] | 11 to 100
17 | Nc1nc(F)c(-c2ccc(N3CCN(CCCC(F)F)CC3)cc2)cc1-c1ccc2c(=O)[nH]cc(F)c2c1 [I-544, 6-(2-amino-5-(4-(4-(4,4-difluorobutyl)piperazin-1-yl)phenyl)-6-fluoropyridin-3-yl)-4-fluoroisoquinolin-1(2H)-one] | 0.1 to 10
18 | Cc1c[nH]c(=O)c2ccc(-c3cc(-c4ccc(N5CCN(C6CCC6)CC5)cc4)c(F)nc3N)cc12 [I-545, 6-(2-amino-5-(4-(4-cyclobutylpiperazin-1-yl)phenyl)-6-fluoropyridin-3-yl)-4-methylisoquinolin-1(2H)-one] | 0.1 to 10
19 | Nc1nc(F)c(-c2ccc(N3CCN(C4CCC4)CC3)cc2)cc1-c1ccc2c(=O)[nH]cc(F)c2c1 [I-546, 6-(2-amino-5-(4-(4-cyclobutylpiperazin-1-yl)phenyl)-6-fluoropyridin-3-yl)-4-fluoroisoquinolin-1(2H)-one] | 0.1 to 10
20 | CC(C)N1CCN(c2ccc(-c3cc(-c4cc5c(F)c[nH]c(=O)c5cc4F)c(N)nc3F)cc2)CC1 [I-547, 6-(2-amino-6-fluoro-5-(4-(4-isopropylpiperazin-1-yl)phenyl)pyridin-3-yl)-4,7-difluoroisoquinolin-1(2H)-one] | 0.1 to 10
21 | Nc1nc(F)c(-c2ccc(N3CCOCC3)c(CN3CCC3)c2)cc1-c1ccc2c(c1)CCNC2=O [I-549, 6-(2-amino-5-(3-(azetidin-1-ylmethyl)-4-morpholinophenyl)-6-fluoropyridin-3-yl)-3,4-dihydroisoquinolin-1(2H)-one] | 11 to 100
22 | Nc1nc(F)c(-c2ccc(N3CCOCC3)c(CN3CCC3)c2)cc1-c1cc2c(cc1F)C(=O)NCC2 [I-550, 6-(2-amino-5-(3-(azetidin-1-ylmethyl)-4-morpholinophenyl)-6-fluoropyridin-3-yl)-7-fluoro-3,4-dihydroisoquinolin-1(2H)-one] | 11 to 100
23 | CCN(C)Cc1cc(-c2cc(-c3cc4c(cc3F)C(=O)NCC4)c(N)nc2F)ccc1C1CCOCC1 [I-552, 6-(2-amino-5-(3-((ethyl(methyl)amino)methyl)-4-(tetrahydro-2H-pyran-4-yl)phenyl)-6-fluoropyridin-3-yl)-7-fluoro-3,4-dihydroisoquinolin-1(2H)-one] | 11 to 100
24 | COCCN(C)Cc1cc(-c2cc(-c3ccc4c(c3)CCNC4=O)c(N)nc2F)ccc1N1CCOCC1 [I-553, 6-(2-amino-6-fluoro-5-(3-(((2-methoxyethyl)(methyl)amino)methyl)-4-morpholinophenyl)pyridin-3-yl)-3,4-dihydroisoquinolin-1(2H)-one] | 0.1 to 10
25 | COCCN(C)Cc1cc(-c2cc(-c3cc4c(cc3F)C(=O)NCC4)c(N)nc2F)ccc1N1CCOCC1 [I-554, 6-(2-amino-6-fluoro-5-(3-(((2-methoxyethyl)(methyl)amino)methyl)-4-morpholinophenyl)pyridin-3-yl)-7-fluoro-3,4-dihydroisoquinolin-1(2H)-one] | 11 to 100
26 | CN(C)Cc1cc(-c2cc(-c3ccc4c(c3)CCNC4=O)c(N)nc2F)ccc1OCC(F)F [I-555, 6-(2-amino-5-(4-(2,2-difluoroethoxy)-3-((dimethylamino)methyl)phenyl)-6-fluoropyridin-3-yl)-3,4-dihydroisoquinolin-1(2H)-one] | 11 to 100
27 | CN(C)Cc1cc(-c2cc(-c3cc4c(cc3F)C(=O)NCC4)c(N)nc2F)ccc1OCC(F)F [I-556, 6-(2-amino-5-(4-(2,2-difluoroethoxy)-3-((dimethylamino)methyl)phenyl)-6-fluoropyridin-3-yl)-7-fluoro-3,4-dihydroisoquinolin-1(2H)-one] | 11 to 100
28 | Nc1nc(F)c(-c2ccc(C3CCOCC3)c(CN3CCCC3)c2)cc1-c1ccc2c(c1)CCNC2=O [I-557, 6-(2-amino-6-fluoro-5-(3-(pyrrolidin-1-ylmethyl)-4-(tetrahydro-2H-pyran-4-yl)phenyl)pyridin-3-yl)-3,4-dihydroisoquinolin-1(2H)-one] | 11 to 100
29 | Nc1nc(F)c(-c2ccc(C3CCOCC3)c(CN3CCCC3)c2)cc1-c1cc2c(cc1F)C(=O)NCC2 [I-558, 6-(2-amino-6-fluoro-5-(3-(pyrrolidin-1-ylmethyl)-4-(tetrahydro-2H-pyran-4-yl)phenyl)pyridin-3-yl)-7-fluoro-3,4-dihydroisoquinolin-1(2H)-one] | 11 to 100
